Test [1] concerns A118. Kind of test: Effect of OHOD on cancer cells in culture (Table 2). The settings on record: A118, Glioma. Further details: key to Anti-tumour effect: + [inhibition of growth]; ++ [total halt of growth]; +++ [total removal of tumour cells]; key to Mechanism of action: P [anti-proliferative]; D [differentiation]; A [apoptosis]. Type of test: cell-based, human. The protocol: (§1) Also, a series of α-derivatives of cis-monounsaturated fatty acids were used to investigate their effectiveness in cancer treatment. Two types of experiment were performed. Firstly, the dependency of the anti-tumour effect on concentration was investigated. To perform these experiments, human lung cancer cells (A549) were cultivated in RPMI medium, supplemented with 10% foetal bovine […], 10 mM Hepes (pH 7.4), 2 mM glutamine, 2 g/l bicarbonate, 1 g/l glucose, 100 units/ml penicillin, 0.1 mg/ml streptomycin, 0.25 μg/ml Amphotericin B, at 37° C. and in the presence of 5% CO2. In a first experimental series, these cells were treated with various concentrations (0-400 μM) of OHOD and MOD11 and the number of cells was determined by flow cytometry (FIG. 3A). […] In a second series, the anti-tumour effectiveness on A549 lung cancer cells was investigated at a single concentration (150 μM) and a time of 48 hours (FIG. 3B). […] Obviously, among the previous molecules, some lacked both modifications on the α-carbon and the double bond in cis configuration (EO, HDO, ODO) and had no therapeutic effect.
(§2) In a second experimental series, designed to discover whether these molecules are effective in treatment of different types of tumours, the effect of OHOD at various concentrations on human cells of different types of cancer was studied. These experiments were performed as described before, except that the M220 and HT-29 cell lines were cultured in DMEM medium and the MDA-MB-231 line was incubated in Leibowitz L-15 medium supplemented with 15% foetal bovine […]. […] Where the nature of the tumour process requires, application can be topical (use on the skin of active products for the treatment of melanoma and other cutaneous abnormalities of cancerous nature), which can be considered as cosmetic treatments when attempts are made to correct aesthetic defects.

The test system of test [2] is HeLa. Described as above. It is filed as cell-based, human. The arrangement: key to Anti-tumour effect: + [inhibition of growth]; ++ [total halt of growth]; +++ [total removal of tumour cells]; key to Mechanism of action: P [anti-proliferative]; D [differentiation]; A [apoptosis]. The settings on record: Cervix. The method, then: as §1, §2
The subject of test [3] is LNcaP. The test is described as above. The settings on record: Prostate. It is filed as cell-based, human. Further details: key to Anti-tumour effect: + [inhibition of growth]; ++ [total halt of growth]; +++ [total removal of tumour cells]; key to Mechanism of action: P [anti-proliferative]; D [differentiation]; A [apoptosis]. The method, then: as §1, §2
Test [4] concerns MDA-MB-231. The test is described as above. It is filed as cell-based, human. Further details: key to Anti-tumour effect: + [inhibition of growth]; ++ [total halt of growth]; +++ [total removal of tumour cells]; key to Mechanism of action: P [anti-proliferative]; D [differentiation]; A [apoptosis]. The settings on record: MDA-MB-231, Breast. The protocol:
as §1, §2

Test [5] relates to L-1210. The description is as above. Type of test: cell-based, human. Further details: key to Anti-tumour effect: + [inhibition of growth]; ++ [total halt of growth]; +++ [total removal of tumour cells]; key to Mechanism of action: P [anti-proliferative]; D [differentiation]; A [apoptosis]. The settings on record: L-1210, Lym-Leukaemia. The protocol:
as §1, §2

Test [6] has as its system A172. The test is described as above. Type of test: cell-based, human. The arrangement: key to Anti-tumour effect: + [inhibition of growth]; ++ [total halt of growth]; +++ [total removal of tumour cells]; key to Mechanism of action: P [anti-proliferative]; D [differentiation]; A [apoptosis]. The settings on record: A172, Glioma. The method, then:
as §1, §2

In test [7] the test system is T98G. The description is as above. Type of test: cell-based, human. Further details: key to Anti-tumour effect: + [inhibition of growth]; ++ [total halt of growth]; +++ [total removal of tumour cells]; key to Mechanism of action: P [anti-proliferative]; D [differentiation]; A [apoptosis]. The settings on record: Glioma. The protocol: as §1, §2
Test [8] relates to SH-SY5Y. Described as above. It is filed as cell-based, human. Further details: key to Anti-tumour effect: + [inhibition of growth]; ++ [total halt of growth]; +++ [total removal of tumour cells]; key to Mechanism of action: P [anti-proliferative]; D [differentiation]; A [apoptosis]. The settings on record: Neuroblastoma. The protocol: as §1, §2
The test system of test [9] is HT-29. Described as above. Type of test: cell-based, human. Further details: key to Anti-tumour effect: + [inhibition of growth]; ++ [total halt of growth]; +++ [total removal of tumour cells]; key to Mechanism of action: P [anti-proliferative]; D [differentiation]; A [apoptosis]. The settings on record: HT-29, Colon. The protocol: as §1, §2
The test system of test [10] is U87-MG. Described as above. Type of test: cell-based, human. Further details: key to Anti-tumour effect: + [inhibition of growth]; ++ [total halt of growth]; +++ [total removal of tumour cells]; key to Mechanism of action: P [anti-proliferative]; D [differentiation]; A [apoptosis]. The settings on record: Glioma. The protocol:
as §1, §2

In test [11] the test system is M220. The test is described as above. Type of test: cell-based, human. Further details: key to Anti-tumour effect: + [inhibition of growth]; ++ [total halt of growth]; +++ [total removal of tumour cells]; key to Mechanism of action: P [anti-proliferative]; D [differentiation]; A [apoptosis]. The settings on record: M220, Pancreas. The method, then: as §1, §2
Test [12] has as its system Human glioma cells (U118). Kind of test: Differentiation of human glioma cells (U118). Type of test: cell-based. The settings on record: 200 μM. An excerpt: FIG. 16B. Human glioma cells (U118) are astrocytes of the central nervous system ([…]) that have lost their differentiation (Control). […] This differentiating activity can be involved in neuroregenerative processes necessary for recovery of motor activity.
This effect may be due to the induction of neural projection sprouting necessary to re-establish connections lost by the nerve fibre lesion.

On to `CCCCCCCC/C=C\CCCCCCC(O)C(=O)O` (stereo not drawn) [OHOD, α-Hydroxy-cis-Δ9-octadecenoic], for which the Anti-tumour effect entry in test [1] is on record as “+++”; in test [2], “+++”; in [3], “+++”; in test [4], “++”; in test [5] it was “+++”; in test [6], “++”. In addition, the Anti-tumour effect entry in test [7] is given as “+++”; in test [8], “+”; in test [9], “++”; in [10], “+++”; in [11] it was “++”. The Mechanism of action result is recorded as “D” in test [1]; “A” in [2]; “A” in test [3]; “A” in test [4]; “A” in [5]; “D” in test [6]. In addition, the Mechanism of action result in test [7] is recorded as “D”; in test [8], “P”; in test [9] it was “A”; in [10] it was “D”; in [11], “A”.

Turning to `CCCCCCCC/C=C\CCCCCCC(O)C(=O)[O-].[Na+]` (centres unmarked) [Na-OHOD], in test [12], the “differentiation of glioma cells” value was “differentiate and develop towards the glial phenotype”.

The values are drawn from patent US9730906B2, “α-derivatives of cis-monounsaturated fatty acids for use as medicines” (UNIVERSITAT DE LES ILLES BALEARS, priority 2008, dated 2017).
